Patent US20260078103A1, “ISOQUINOLONES AS PI3K INHIBITORS” (OnKure, Inc., priority 2022, published 2026)
Like-named read-outs stand apart in the source and are kept apart here.

Experiments:
Format in all cases: cell-based
[1] = test system: phosphorylation of AKT (pAKT) in SKBR3 cells express WT PI3Ka; assay: In vitro cell pAKT (Ser473) HTRF, SKBR3 cells; conditions: cellular pAKT
How it was run: (§1)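 pAKT (Ser473) was quantified by HTRF in lysates from cells exposed 6 h at 37 °C to 10-point compound series, with T47D in insulin-supplemented RPMI/10% FBS and SKBR3 in McCoy's 5a/10% FBS. Controls: 0.1% DMSO (high) and 10 uM alpelisib (low). IC50 from sigmoidal curve fitting.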

[2] = test system: SKBR3 cells express WT PI3Ka; assay: In vitro cell proliferation, SKBR3 cells (CellTiter-Glo); conditions: inhibition of proliferation
How it was run: (§2)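 Proliferation was read by CellTiter-Glo luminescence after 72 h of exposure to 10-point compound dilutions at 37 °C and 5% CO2. T47D (RPMI, 10% FBS, insulin 0.2 units/mL) and SKBR3 (McCoys 5a, 10% FBS) cells were seeded at 1,500 cells/well. EC50 was fitted from inhibition relative to DMSO and 10 uM Alpelisib.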

[3] = test system: T47D cells expressing mutant PI3Ka (H1047R); assay: In vitro cell proliferation, T47D cells (CellTiter-Glo); conditions: inhibition of proliferation, read-out: Avg T-47D EC50
How it was run: as §2

[4] = test system: phosphorylation of AKT (pAKT) in T47D cells expressing mutant PI3Ka (H1047R); assay: In vitro cell pAKT (Ser473) HTRF, T47D cells; conditions: cellular pAKT, T47D cells, mutant PI3Ka (H1047R), 6 hours, read-out: Avg T-47D IC50
How it was run: as §1

Row | Compound | IC50 ([1]; Homo sapiens, SK-BR-3, 6 h) | EC50 ([2]; Homo sapiens, SK-BR-3, 72 h) | EC50 ([3]; Homo sapiens, T47D, 72 h) | IC50 ([4]; Homo sapiens, T47D, 6 h) | IC50 ([1]; 6 hours) | EC50 ([2]; 72 hours) | EC50 ([3]; 72 hours) | IC50 [4]
1 | Cc1cc([C@@H](C)Nc2cccc(F)c2C(=O)O)c2cc(N3CCc4c(cnn4C)C3)n(C)c(=O)c2c1 [Example 439] | – | – | – | – | > 15 µM | > 15 µM | 0.5 to 2 µM | 0.5 to 2 µM
2 | Cc1cc([C@@H](C)Nc2ccc(Cl)nc2C(=O)O)c2cc(N3CCN(Cc4ccc(F)cc4)CC3)n(C)c(=O)c2c1 [Example 25, (R)-6-chloro-3-((1-(3-(4-(4-fluorobenzyl)piperazin-1-yl)-2,7-dimethyl-1-oxo-1,2-dihydroisoquinolin-5-yl)ethyl)amino)picolinic acid] | 2 to 15 µM | 2 to 15 µM | 0.001 to 0.5 µM | 0.001 to 0.5 µM | – | – | – | –
3 | Cc1cc(C(C)Nc2ccccc2C(=O)O)c2cc(N3CCN(C(C)C(F)(F)F)CC3)n(C)c(=O)c2c1 (mixture of isomers) [Example 271] | – | – | – | – | > 15 µM | 2 to 15 µM | 0.001 to 0.5 µM | 0.001 to 0.5 µM
4 | Cc1cc(C(C)Nc2ccccc2C(=O)O)c2cc(N3CC(c4ccccc4)C3)n(C)c(=O)c2c1 (single isomer, unassigned) [Example 77] | – | – | – | – | > 15 µM | > 15 µM | 0.5 to 2 µM | 0.001 to 0.5 µM
5 | Cc1cc(C(C)Nc2ccccc2C(=O)O)c2cc(N3CC4(CC(C(F)(F)F)C4)C3)n(C)c(=O)c2c1 (single isomer, unassigned) [Example 83] | – | – | – | – | > 15 µM | > 15 µM | 2 to 15 µM | > 15 µM
6 | Cc1cc(C(C)Nc2ccccc2C(=O)O)c2cc(N3CCN4C(=O)CCC4C3)n(C)c(=O)c2c1 (single isomer, unassigned) [Example 134] | > 15 µM | > 15 µM | 2 to 15 µM | > 15 µM | – | – | – | –
7 | Cc1cc([C@@H](C)Nc2ccccc2C(=O)O)c2cc(C3C[C@H]3C3CC3)n(C)c(=O)c2c1 (single isomer, unassigned) [Example 309] | – | > 15 µM | 0.001 to 0.5 µM | 0.001 to 0.5 µM | 2 to 15 µM | – | – | –
8 | Cc1cc([C@@H](C)Nc2ccc(Cl)nc2C(=O)O)c2cc(-c3cnc(C(C)C)nc3)n(C)c(=O)c2c1 [Example 329] | 2 to 15 µM | 2 to 15 µM | 0.001 to 0.5 µM | 0.001 to 0.5 µM | – | – | – | –

Second part, the compound after the results:

Row | IC50 ([1]; Homo sapiens, SK-BR-3, 6 h) | EC50 ([2]; Homo sapiens, SK-BR-3, 72 h) | EC50 ([3]; Homo sapiens, T47D, 72 h) | IC50 ([4]; Homo sapiens, T47D, 6 h) | IC50 ([1]; 6 hours) | EC50 ([2]; 72 hours) | EC50 ([3]; 72 hours) | IC50 [4] | Compound
9 | 2 to 15 µM | > 15 µM | 0.001 to 0.5 µM | 0.001 to 0.5 µM | – | – | – | – | Cc1ncc(N2CCN(c3cc4c([C@@H](C)Nc5ccccc5C(=O)O)cc(F)cc4c(=O)n3C)CC2)s1 [Example 478]
10 | 2 to 15 µM | 2 to 15 µM | 0.001 to 0.5 µM | 0.001 to 0.5 µM | – | – | – | – | Cc1cc([C@@H](C)Nc2ccccc2C(=O)O)c2c(F)c(N3CCN(CC(F)(F)F)CC3)n(C)c(=O)c2c1 [Example 285]
11 | > 15 µM | > 15 µM | 0.001 to 0.5 µM | 0.001 to 0.5 µM | – | – | – | – | Cc1cc([C@@H](C)Nc2ccccc2C(=O)O)c2cc(-c3cnc(C(C)C)nc3)n(C)c(=O)c2c1 [Example 276]
12 | – | – | – | – | > 15 µM | > 15 µM | 0.5 to 2 µM | 0.5 to 2 µM | Cc1cc(C(C)Nc2ccccc2C(=O)O)c2cc(N3CC4CN(CC(F)(F)F)CC4C3)n(C)c(=O)c2c1 (mixture of isomers) [Example 90]
13 | 2 to 15 µM | 2 to 15 µM | 0.001 to 0.5 µM | 0.001 to 0.5 µM | – | – | – | – | Cc1cnc(N2CCN(c3cc4c([C@@H](C)Nc5ccccc5C(=O)O)cc(F)cc4c(=O)n3C)CC2)s1 [Example 467]
14 | > 15 µM | > 15 µM | 0.001 to 0.5 µM | 0.001 to 0.5 µM | – | – | – | – | Cc1cc([C@@H](C)Nc2ccccc2C(=O)O)c2cc(-c3ncc(C(F)(F)F)cn3)n(C)c(=O)c2c1 [Example 383]
15 | – | – | – | – | > 15 µM | > 15 µM | 0.001 to 0.5 µM | 0.001 to 0.5 µM | C[C@@H](Nc1cccc(F)c1C(=O)O)c1cc(F)cc2c(=O)n(C)c(N3CCC(F)(F)C3)cc12 [Example 414]
16 | – | – | – | – | > 15 µM | > 15 µM | 0.001 to 0.5 µM | 0.001 to 0.5 µM | C[C@@H](Nc1ccccc1C(=O)O)c1cc(F)cc2c(=O)n(C)c(C3CC3(F)F)cc12 (single isomer, unassigned) [Example 482]
17 | > 15 µM | > 15 µM | 0.001 to 0.5 µM | 0.001 to 0.5 µM | – | – | – | – | Cc1cc([C@@H](C)Nc2ccccc2C(=O)O)c2cc(-c3cnc(C(F)(F)F)c(F)c3)n(C)c(=O)c2c1 [Example 295]
18 | – | – | – | – | > 15 µM | > 15 µM | 2 to 15 µM | > 15 µM | Cc1cc(C(C)Nc2ccccc2C(=O)O)c2c(F)c(C3=CCN(CC(F)(F)F)CC3)n(C)c(=O)c2c1 (single isomer, unassigned) [Example 360]
19 | > 15 µM | 2 to 15 µM | 0.5 to 2 µM | 0.001 to 0.5 µM | – | – | – | – | C[C@@H](Nc1ccccc1C(=O)O)c1cc(F)cc2c(=O)n(C)c(-c3cnc(OCC(F)(F)F)c(F)c3)c(F)c12 [Example 569]
